The star is where a group is joined. AMC = Cc1cc(=O)oc2cc(N*)ccc12
What was measured:
Assay type in all cases: biochemical
[1] = target: T1, interleukin-1β converting enzyme (Homo sapiens, UniProt P29466); assay: Direct fluorometric assay of ICE activity of DEAE-purified THP-1 cell lysate in the presence of an enzyme inhibitor (Example 1B); parameters: THP-1 cell lysate purified approximately 100-fold using DEAE-anion exchange chromatography; endogenous in cells; host or cells: THP-1 cells (lysate, about 100-fold DEAE-purified); conditions: 25 °C
T1 sequence (P29466 120-297 limits assumed): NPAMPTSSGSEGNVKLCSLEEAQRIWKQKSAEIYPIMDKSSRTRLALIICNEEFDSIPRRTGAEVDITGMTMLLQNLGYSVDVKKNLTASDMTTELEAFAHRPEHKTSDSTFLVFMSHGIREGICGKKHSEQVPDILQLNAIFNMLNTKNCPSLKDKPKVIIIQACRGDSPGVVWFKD
T1 sequence (P29466 317-404 limits assumed): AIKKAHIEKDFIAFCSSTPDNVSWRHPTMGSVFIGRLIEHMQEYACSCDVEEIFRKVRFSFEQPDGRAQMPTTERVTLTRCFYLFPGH
Procedure: Direct Assay: Interleukin 1β activity of Activity of DEAE-purified THP-1 cell lysate in the presence of an enzyme inhibitor.
(§1) Enzyme: THP-1 cell lysate purified approximately 100-fold using DEAE-anion exchange chromatography stock concentration = 5 units/ul (a unit is defined as the amount of enzyme required to produce 1 pmole of AMC/min at 25 degrees using saturating levels of substrate (> = 50 µM).
Substrate: Ac-Tyr-Val-Ala-Asp-AMC 5 mM stock solution in DMSO
(§2) Buffer: 100 mM Hepes 10% sucrose 0.1% Chaps 1 mM DTT 1 mg/ml BSA pH 7.5
Sample: compound Z (i.e. N-(N-acetyl-tyrosinylvalinyl-alaninyl)-3-amino-4-oxo butanoic acid) 2µM in H20
At 25 ° C, 5µl of substrate 5µl of enzyme and 5µl of sample were added to 485 µl of Buffer as defined above.
Liberation of AMC was monitored using a Gilford Fluoro IV Spectrofluorometer using an excitation wavelength of 380 nm and an emmission wavelength of 460nm. 1µM AMC = 100% relative fluoroscence.

[2] = target: T1, interleukin-1β converting enzyme; assay: Direct fluorometric assay of ICE activity of DEAE-purified THP-1 cell lysate (Example 1A); parameters: THP-1 cell lysate purified approximately 100-fold using DEAE-anion exchange chromatography; endogenous in cells; host or cells: THP-1 cells (lysate, about 100-fold DEAE-purified); conditions: substrate cleavage, 25 °C, pH 7.5, 5 µl of 5 mM substrate and 5 µl enzyme (5 units/ul) in 490 µl buffer
Procedure: Direct Assay: Interleukin 1β activity of Activity of DEAE-purified THP-1 cell lysate.
as §1
Substrate: N-(N-Acetyl-Tyrosinyl)-Valinyl-alaninylaspartic acid 7-amino-4-methylcoumarin amide (i.e. Ac-Tyr-Val-Ala-Asp-AMC) 5 mM stock solution in DMSO
Buffer: 100 mM Hepes 10% sucrose 0.1% Chaps 1 mM DTT 1 mg/ml BSA pH 7.5 At 25 ° C, 5µl of substrate and 5µl of enzyme was added to 490 µl of Buffer as defined above.
Liberation of 7-Amino-4-methylcoumarin (AMC) was monitored using a Gilford Fluoro IV Spectrofluorometer using an excitation wavelength of 380 nm and an emmission wavelength of 460nm. 1µM AMC = 100% relative fluoroscence.

[3] = target: T1, interleukin-1β converting enzyme; assay: Direct spectrophotometric assay of ICE activity of DEAE-purified THP-1 cell lysate (Example 2); parameters: THP-1 cell lysate purified approximately 100-fold using DEAE-anion exchange chromatography; endogenous in cells; host or cells: THP-1 cells (lysate, about 100-fold DEAE-purified); conditions: 25 °C, pH 7.5
Procedure: as §1, with “Direct Assay: Interleukin 1β activity of Activity of DEAE-purified THP-1 cell lysate. Enzyme:” for “Enzyme:”, “p-NA/min” for “AMC/min”, “substrate. p-NA is para-nitroanaline.” for “substrate (> = 50 µM).”
Substrate: Ac-Tyr-Val-Ala-Asp-p-NA 5 mM stock solution in DMSO
as §2
At 25 ° C, […] of Buffer as defined above.
Reaction is monitored continuously in a Cary 219 spectrophotometer at a wavelength of 410 nm. Results: The rate of the reaction under these conditions is 0.005 absorbance units/min, corresponding to 0.5 uM pNA produced/min.

[4] = target: T1, interleukin-1β converting enzyme; assay: Coupled fluorometric assay of ICE activity of DEAE-purified THP-1 cell lysate with leucine aminopeptidase (LAPM) (Example 3); parameters: THP-1 cell lysate purified approximately 100-fold using DEAE-anion exchange chromatography; endogenous in cells; host or cells: THP-1 cells (lysate, about 100-fold DEAE-purified); The coupling enzyme LAPM was purchased from Sigma, No. L-0632, and comes from porcine kidney microsomes; conditions: 25 C
Procedure: Coupled Assay: Interleukin 1β activity of Activity of DEAE-purified THP-1 cell lysate.
Enzyme: THP-1 cell lysate purified approximately 100-fold using DEAE-anion exchange chromatography stock concentration = 5 units/ul (a unit is defined as the amount of enzyme required to produce 1 pmole of AMC/min at 25 degrees using saturating levels of substrate ( = 50 uM).
Coupling Enzyme: Leucine Aminopetidase Microsomal (Type IV) (LAPM) (purified from porcine kidney microsomes) EC 3.4.11.2 Sigma No. L-0632 12.5 units/ml stock solution in DMSO
Substrate: Ac-Tyr-Val-Ala-Asp-Gly-AMC 5 mM stock solution in DMSO
as §2
At 25 C, 5µl of substrate 50 µl of LAPM, 5µl of ICE were added to 440 µl of buffer. Reaction is monitored continuously in a Gilford Fluoro-IV Spectrofluorometer. excitation wavelength = 380 nm emission wavelength = 460 nm 1 uM AMC = 100% relative fluoroescence

[5] = 5 µl of sample 2µM in 500 µl, substrate Ac-Tyr-Val-Ala-Asp-AMC

## CC(=O)N[C@@H](Cc1ccc(O)cc1)C(=O)N[C@H](C(=O)N[C@@H](C)C(=O)N[C@@H](CC(=O)O)C(=O)Nc1ccc2c(C)cc(=O)oc2c1)C(C)C [Ac-Tyr-Val-Ala-Asp-AMC, N-(N-Acetyl-tyrosinyl-valinyl-alaninyl)-aspartic acid a-7-amino-4-methylcoumarin amide]
[1]; uninhibited initial velocity of substrate cleavage in the presence of compound Z, pH 7.5
  initial velocity: 0.05 uM AMC produced/min
[2]
  rate: 0.005 mM AMC/min
[2]; 1µM AMC = 100% relative fluorescence
  100% relative fluoroscence achieved in: 20 min

## CC(=O)N[C@@H](Cc1ccc(O)cc1)C(=O)N[C@H](C(=O)N[C@@H](C)C(=O)N[C@@H](CC(=O)O)C(=O)Nc1ccc([N+](=O)[O-])cc1)C(C)C [Ac-Tyr-Val-Ala-Asp-p-NA]
[3]; corresponding to the absorbance rate at 410 nm
  rate of the reaction (pNA produced): 0.5 uM pNA produced/min
[3]; substrate cleavage monitored at 410 nm, 5 mM substrate stock
  rate of the reaction: 0.005 absorbance units/min

## N-(N-Acetyl-tyrosinyl-valinyl-alaninyl-aspartylglycinyl)-7-amino-4-methylcoumarin (Ac-YVADG-{AMC}; SMILES CC(=O)N[C@@H](Cc1ccc(O)cc1)C(=O)N[C@H](C(=O)N[C@@H](C)C(=O)N[C@@H](CC(=O)O)C(=O)NCC(=O)Nc1ccc2c(C)cc(=O)oc2c1)C(C)C) [Ac-Tyr-Val-Ala-Asp-Gly-AMC]
[4]; 7 x t 1/2, coupled assay with LAPM
  time required to reach 99% of the steady state of the ICE reaction: 11 min
[4]; coupled assay with LAPM, 5 µl of 5 mM substrate, 5 µl ICE in 500 µl, pH 7.5
  velocity of the steady state reaction: 0.05 uM AMC/min
[4]; lag phase, determined by the amount of coupling enzyme (50 µl LAPM, 12.5 units/ml stock)
  rate constant that describes the approach to steady state: 0.44 + 0.01 min -1

## N-(N-acetyl-tyrosinylvalinyl-alaninyl)-3-amino-4-oxo butanoic acid [Compound Z]
[1]; [5]
  half-life for the slow onset of inhibition: 2.7 min
  rate constant for inhibition: 0.25 min-^1
[1]; slow onset of inhibition, value eventually approached, 5 µl of sample 2µM in 500 µl
  inhibition: ~100%
[1]; substrate Ac-Tyr-Val-Ala-Asp-AMC, 5 µl of sample 2µM in H2O in 500 µl, pH 7.5
  kind of inhibition: slow, tight-binding inhibitor

Reference: patent publication EP0533226A2, “Novel chromophore containing compounds” (MERCK & CO. INC., priority 1991, dated 1993)
